According to patent publication US5250537A, “5,6,7,8,9,10-hexahydro-7 ,10-iminocyclohept[b]indole,-6,7,8,9,10-hexahydro-7,11-imino-5H-cyclooct[ b]indole and substituted derivatives” (Scios Nova Inc., priority 1992, dated 1993):
Structures can show the parent of a compound that is named as a salt. Where two headings read alike, the source gives them in different places.

Assays:
dopamine receptors [1] = conditions: Welch et al. 1980; cited from earlier work
[2] = target: sigma receptor ([3H]DTG site); assay: In Vitro Sigma Receptor Binding, [3H]DTG; conditions: guinea pig brain; 45 minutes at 25° C.
Protocol: (§1) For both assays frozen guinea pig brains (PelFreez Biologicals, Rogers, AK) were thawed and homogenized in 10 volumes (w/v) of ice cold 0.32M sucrose using 10 strokes of a motor-drivenglass-fitted teflon pestle adjusted to 600 rpm. The homogenate was centrifuged (4° C.) at 900× g for 10 minutes and the resultant supernatant collected and centrifuged at 22,000×g for 20 minutes. The pellet obtained from the centrifugation was resuspended in 10 volumes of 50 mM Tris HCl (pH 7.4, 25° C.) and incubated for 30 minutes at 37° C. Following the preincubation, the homogenate was centrifuted at 22,000×g for 20 minutes and the final pellet was resuspended in buffer to a protein concentration of 0.5-1.0 mg/mL for use in the assay.
(§2) Binding reactions were initiated by the addition of tissue (800 μL) to tubes containing assay buffer, the radioligand (final concentration 1-3 nM) and the compound of interest. Haloperidol (10 μM) and (+)-3-PPP (10 μM) were used to determine the levels of […] [^3 H]DTG and [^3 H](+)PPP binding, respectively. Final assay volume was 1 mL. Reactions were allowed to proceed for 45 minutes at 25° C. and terminated by rapid filtration over Whatman GF/B filters which were washed 3 times with 5 mL of cold buffer. Radioactivity trapped on the filters was determined using routine methods. […] All assays were performed using triplicate determinations. For comparison purposes, IC50 values are reported rather than Ki values.

[3] = target: T1, sigma receptor ([3H](+)-3-PPP site) (Cavia porcellus, UniProt Q60492); assay: In Vitro Sigma Receptor Binding, [3H](+)-3-PPP; parameters: species or system guinea pig; conditions: 45 minutes at 25° C.
T1 construct: frozen guinea pig brains; tissue PelFreez Biologicals, Rogers, AK; host or cells: guinea pig brain membranes
Protocol: as §1, §2

dopamine (D-2) receptors = target: T2, dopamine (D-2) receptors (Rattus norvegicus, UniProt P61169); assay: In Vitro Dopamine (D-2) Receptor Binding, [3H]sulpiride; conditions: read-out: Dopamine D-2 [3H]sulpiride Ki
T2 construct: the corpus striatum was dissected and homogenized; from tissue; host or cells: rat corpus striatum membranes
Protocol: On the day of assay, rats were sacrificed by decapitation, the corpus striatum was dissected and homogenized in 20 volumes of ice-cold 50 mM Tris HCl (pH 7.5, 25° C.). The homogenate was centrifuged (4° C.) at 48,000×g for 10 minutes and the resulting pellet was resuspended in 20 volumes of fresh buffer and recentrifuged. […] A portion of the suspension (800 μL) was added in triplicate to tubes containing 3 nM [^3 H]sulpiride and the test compound. The final assay volume was 1 mL; haloperidol (10 μM) was used to determine non-specific binding. Following a 60 minute incubation at 25° C., the reactions were terminated by rapid filtration over Whatman GF/B filters which had been pretreated in a solution of 0.3% (w/v) of aqueous polyethylenimine. Filters were washed three times using 5 mL of ice-cold buffer and processed using standard procedures to determine radioactivity. IC50 values were obtained from concentration-response curves in which a number of concentrations of test compound were examined. Ki values were determined using the Cheng-Prusoff equation.

[4] = target: T3, serotonin 5-HT2 receptors (Rattus norvegicus, UniProt P14842); assay: In Vitro Serotonin (5-HT2) Receptor Binding, [3H]ketanserin; conditions: for Ki: rat cortical membranes, 1 nM [3H]ketanserin
T3 construct: Rat cortical synaptosomal membranes were prepared on the day of assay; from tissue; host or cells: rat frontal cortex synaptosomal membranes
Protocol: The potency of compounds to inhibit the specific binding of [^3 H]ketanserin (84.2 Ci/mM) to serotonin 5-HT2 receptors was determined as detailed previously [J. E. Leysen, C. J. E. Niemegers, J. M. Van Neuten and P. M. Laduron, Mol. Pharmacol., 21, 301-314 (1982)]. Rat cortical synaptosomal membranes were prepared on the day of assay. Animals were sacrified by decapitation, the frontal cortex was removed and homogenized in 10 volumes (w/v) of ice-cold 0.32M sucrose using a motor driven teflon pestle fitted to a glass tube. The synaptosomal pellet was suspended in 50 mM Tris HCl (pH 7.6 at 25° C.) to a concentration of 7.5 mg original wet weight/mL. For the binding reaction, 400 μL of this tissue suspension was added to polypropylene tubes containing 50 mM Tris HCl and [^3 H]ketanserin (final concentration of 1 nM) in a final assay volume of 0.5 mL. Following a 15 minute incubation at 37° C., the binding reaction was terminated by rapid vacuum filtration over Whatman GF/B filters (presoaked in 0.1% PEI) followed by 3×4 mL washes with ice cold 50 mM Tris HCl. Nonspecific binding was assessed in the presence of 10 μM methysergide. All incubations were performed in triplicate. IC50 values were determined using log logit analysis.

dopamine receptors [5] = assay: In Vivo Dopamine Antagonist Activity (inhibition of apomorphine-induced climbing); parameters: species or system mice (CF-1)
[6] = In vivo Cataleptic Activity; parameters: species or system mice (CF-1); conditions: for catalepsy (in words): any dose tested, oral
Protocol: (§3) The potency of selected compounds to produce catalepsy and motor impairment was evaluated according to the following methods. Groups of male CF-1 mice (Harlan Sprague-Dawley, Inc.), weighing 25-30 g, were food-deprived for 3-5 hours prior to oral administration of the compound of interest. These agents were suspended in 10% DMSO/10% Tween/80% distilled water vehicle and administered in a volume of 0.01 mL/g body weight. Fifty-five minutes after oral (po) administration, the presence or absence of catalepsy was determined by placing the forepaws on a rod (6 mm diameter) mounted 39 mm above the floor of the test chamber. Pressure was applied to immobilize the subject with its back in a concave position. Following removal of pressure, the latency to recover normal posture, as defined by the return of at least one forepaw to the floor of the chamber, or the placement of one hindlimb on the bar, was recorded. Mice were tested three times and considered cataleptic if recovery was not apparent within 30 seconds during any of the three trials. Following determination of catalepsy and at 60 minutes post administration of compound, motor impairment was determined by placing mice on a rotating knurled bar (Rotorod, Ugo Basile model 7600; 6-7 revolutions per minute; 3.8 cm diameter). Mice were tested up to three times; mice failing to remain on the bar for 60 sec during all three tests were considered impaired.

[7] = Motor impairment (rotorod); format: in vivo, mice (CF-1); conditions: for dose at which impairment of rotorod performance was noted: oral
Protocol: as §3

dopamine D-2 receptors = conditions: Snyder and Largent 1988; cited from earlier work
sigma receptors = conditions: Snyder and Largent 1988; cited from earlier work
[8] = guinea pig brain, read-out: Sigma [3H](+)-3-PPP binding IC50
[9] = rat corpus striatum, 3 nM [3H]sulpiride

T3 sequence (P14842 whole entry): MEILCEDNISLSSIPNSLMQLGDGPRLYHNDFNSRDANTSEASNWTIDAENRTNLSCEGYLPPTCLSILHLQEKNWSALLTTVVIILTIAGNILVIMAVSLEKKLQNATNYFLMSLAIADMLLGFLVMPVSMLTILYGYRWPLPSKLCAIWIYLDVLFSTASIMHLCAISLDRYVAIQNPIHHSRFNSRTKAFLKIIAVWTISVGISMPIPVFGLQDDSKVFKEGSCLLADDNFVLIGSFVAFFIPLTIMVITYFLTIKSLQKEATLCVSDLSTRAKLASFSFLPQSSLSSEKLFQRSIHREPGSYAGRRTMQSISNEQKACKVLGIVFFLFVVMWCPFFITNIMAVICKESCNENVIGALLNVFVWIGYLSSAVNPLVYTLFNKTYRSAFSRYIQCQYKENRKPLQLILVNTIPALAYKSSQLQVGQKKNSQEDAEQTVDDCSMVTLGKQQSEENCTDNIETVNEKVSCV
T1 sequence (Q60492 whole entry): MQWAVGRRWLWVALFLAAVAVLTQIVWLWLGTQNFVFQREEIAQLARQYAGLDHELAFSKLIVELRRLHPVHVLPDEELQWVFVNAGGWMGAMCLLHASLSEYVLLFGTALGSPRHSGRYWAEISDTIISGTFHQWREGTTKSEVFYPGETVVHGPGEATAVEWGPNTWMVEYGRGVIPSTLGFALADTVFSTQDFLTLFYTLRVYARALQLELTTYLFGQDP
T2 sequence (P61169 whole entry): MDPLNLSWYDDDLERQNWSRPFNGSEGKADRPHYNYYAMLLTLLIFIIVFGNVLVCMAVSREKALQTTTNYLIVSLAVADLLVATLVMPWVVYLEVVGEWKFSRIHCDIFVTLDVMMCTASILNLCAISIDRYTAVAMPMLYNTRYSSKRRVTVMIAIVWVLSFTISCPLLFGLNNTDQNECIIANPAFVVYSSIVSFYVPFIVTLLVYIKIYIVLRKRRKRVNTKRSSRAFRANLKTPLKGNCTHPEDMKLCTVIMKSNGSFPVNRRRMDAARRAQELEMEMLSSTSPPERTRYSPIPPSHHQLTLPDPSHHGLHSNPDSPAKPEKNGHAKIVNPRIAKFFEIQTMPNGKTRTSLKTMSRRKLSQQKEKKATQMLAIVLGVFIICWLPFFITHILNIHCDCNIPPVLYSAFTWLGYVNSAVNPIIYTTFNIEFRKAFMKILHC

For OC(CCCN1CC[C@@H]2[C@@H](C1)c1cc(F)ccc1N2c1ccc(F)cc1)c1ccc(F)cc1 (relative stereo) [4a,9b-trans-8-fluoro-5-(4-fluorophenyl)-2-[4-(4-fluorophenyl)-4-hydroxy-butyl]-2,3,4,4a,9b-hexahydro-1H-pyrido[4,3-b]indole hydrochloride], the “neuroleptic activity (in words)” value (dopamine receptors [1]) is given as “potent neuroleptic which acts by blocking dopamine receptors”.
With O=C1c2ccccc2C(=O)N1CCCN1C2CCC1c1c([nH]c3ccc(F)cc13)C2 (centres unmarked) [6 F H (CH2)3 2-phthalimido 2] the IC50 [2] was 0.836 µM, the IC50 [3, 8] was 3.33 ± 1.81 µM and the Ki (dopamine (D-2) receptors; [9]) was 12.3 ± 1.7 µM. It also gave an inhibition at 1 µM ([4]; read-out: Serotonin 5-HT2 [3H]ketanserin, value @ 1 μM) of 4.9%.
With O=C(COc1ccc(Cl)c(Cl)c1)N1C2CCC1c1c([nH]c3ccccc13)C2 (centres unmarked) [7 H H COCH2 O-3,4-Cl2 Ph 2] the IC50 [2] was > 10 µM, the IC50 [3, 8] was > 10 µM and the Ki (dopamine (D-2) receptors; [9]) was 64.5 µM. It also gave an inhibition at 1 µM ([4]; read-out: Serotonin 5-HT2 [3H]ketanserin, % @ 1 μM) of 24.7%.
In the case of Fc1ccc(CCCCN2C3CCCC2c2c([nH]c4ccc(F)cc24)C3)cc1 (centres unmarked) [11 F H (CH2)4 4-FPh 3], the IC50 [2] is reported as 0.061 µM, the IC50 [3, 8] is reported as 0.15 µM and the Ki (dopamine (D-2) receptors; [9]) is reported as 1.47 µM. The Ki [4] was 0.205 µM.
In the case of Fc1ccc(C(=CCCN2C3CCCC2c2c([nH]c4ccccc24)C3)c2ccc(F)cc2)cc1 (centres unmarked) [11 H H (CH2)2 CHC (4-FPh)2 3], the IC50 [2] is reported as 1.88 µM, the IC50 [3, 8] is reported as > 10 µM and the Ki (dopamine (D-2) receptors; [9]) is reported as 2.31 µM. The Ki [4] was > 1 µM.
With O=C(CCCN1C2CCCC1c1c([nH]c3ccccc13)C2)c1ccc(F)cc1 (centres unmarked) [11 H H (CH2)3 CO 4-FPh 3] the IC50 [2] was 0.043 µM, the IC50 ([3]; Sigma [3H](+)-3-PPP binding IC50, guinea pig brain) was 0.089 µM and the Ki (dopamine (D-2) receptors; [9]) was 0.038 µM. It also gave a Ki [4] of 0.00046 µM.
For Fc1ccc(CCCCN2C3CCCC2c2c([nH]c4ccccc24)C3)cc1 (centres unmarked) [11 H H (CH2)4 4-FPh 3], the IC50 [2] was 0.064 µM, the IC50 [3, 8] was 0.279 µM and the Ki (dopamine (D-2) receptors; [9]) was 0.915 µM. The Ki [4] was 0.0236 µM.
For Fc1ccc(C(=CCCN2C3CCCC2c2c([nH]c4ccc(F)cc24)C3)c2ccc(F)cc2)cc1 (centres unmarked) [12 F H (CH2)2 CHC (4-FPh)2 3], the IC50 [2] was 1.91 µM, the IC50 [3, 8] was 10 µM and the Ki (dopamine (D-2) receptors; [9]) was 3.73 µM. It also gave a Ki [4] of 0.625 µM.
Molecule O=C(CCCN1C2CCCC1c1c([nH]c3ccc(F)cc13)C2)c1ccc(F)cc1 (centres unmarked) [12 F H (CH2)3 CO 4-FPh 3] has an IC50 [2] of 0.023 µM, an IC50 [3, 8] of 0.103 µM and a Ki (dopamine (D-2) receptors) of 0.2 µM. The Ki [4] was 0.0025 µM.
Work on Fc1ccc2[nH]c3c(c2c1)C1CCCC(C3)N1CCCCc1ccccc1 (centres unmarked) [12 F H (CH2)4 Ph 3] yielded an IC50 [2] of 0.042 µM, an IC50 [3, 8] of 0.117 µM and a Ki (dopamine (D-2) receptors; [9]) of 1.87 µM. The Ki [4] was 0.172 µM.
In the case of Fc1ccc2[nH]c3c(c2c1)C1CCCC(C3)N1 (centres unmarked) [12 F H -- H 3], the IC50 [2] is reported as 0.509 µM, the IC50 [3, 8] is reported as 0.305 µM and the Ki (dopamine (D-2) receptors; [9]) is reported as 58.3 µM. For the same molecule, the Ki [4] was 3 µM.
In the case of O=C(CCCCN1C2CCC1c1c([nH]c3ccccc13)C2)c1ccc(F)cc1 (centres unmarked) [Example 1 H H (CH2)4 CO 4-FPh 2, 11-[5-(4-fluorophenyl)-5-oxopentyl]-5,6,7,8,9,10-hexahydro-7,10-iminocyclohept[b]indole], the “potency (ED50) to inhibit apomorphine-induced climbing” value (dopamine receptors [5]; oral administration, apomorphine 3 mg/kg sc) is reported as 15.7 mg/kg, the “Cataleptic Number” value ([6]; 300 mg/kg po, n=4) is reported as 0 and the “Cataleptic Number” value ([6]; 500 mg/kg po, n=4) is reported as 0. For the same molecule, the “catalepsy (in words)” value [6] was “catalepsy was not observed”, the “Failing Rotorod Number” value ([7]; 300 mg/kg po, n=4) was 1 and the “Failing Rotorod Number” value ([7]; 500 mg/kg po, n=4) was 4. For the same molecule, the “dose at which impairment of rotorod performance was noted” value [7] was 300 to 500 mg/kg.
For O=C(CCCN1C2CCC1c1c([nH]c3ccc(F)cc13)C2)c1ccc(F)cc1 (centres unmarked) [Example 4 F H (CH2)3 CO 4-FPh 2, 2-fluoro-11-[4-(4-fluorophenyl)-4-oxobutyl]-5,6,7,8,9,10-hexahydro-7,10-iminocyclohept[b]indole], the “Cataleptic Number” value ([6]; 300 mg/kg po, n=4) was 0, the “Cataleptic Number” value ([6]; 500 mg/kg po, n=3) was 0 and the “catalepsy (in words)” value [6] was “catalepsy was not observed”. For the same molecule, the “Failing Rotorod Number” value ([7]; 300 mg/kg po, n=4) was 2, the “Failing Rotorod Number” value ([7]; 500 mg/kg po, n=3) was 1 and the “dose at which impairment of rotorod performance was noted” value [7] was 300 to 500 mg/kg.
In the case of CN(C)CCCN1c2ccccc2Sc2ccc(Cl)cc21 [chlorpromazine], the “binding to dopamine D-2 receptors (in words)” value (dopamine D-2 receptors) is given as “bind to both dopamine D-2 and sigma receptors” and the “binding to sigma receptors (in words)” value (sigma receptors) is given as “bind to both dopamine D-2 and sigma receptors”.
For O=C(CCCN1CCC(O)(c2ccc(Cl)cc2)CC1)c1ccc(F)cc1 [haloperidol], the “potency to inhibit apomorphine-induced climbing (reference)” value (dopamine receptors [5]; intraperitoneal (ip) administration) is listed as 0.01 mg/kg, the “binding to dopamine D-2 receptors (in words)” value (dopamine D-2 receptors) is listed as “bind to both dopamine D-2 and sigma receptors” and the “binding to sigma receptors (in words)” value (sigma receptors) is listed as “bind to both dopamine D-2 and sigma receptors”.
